Reference: US12186323B2, “Combination drugs of hypoxanthine and human immunoglobulin” (Institute of Blood Transfusion, Chinese Academy of Medical …, priority 2021, dated 2025)

System: male mice
Assay: Analysis of intestinal injury by 12 Gy of local abdominal irradiation
Format: in vivo
Settings: 12 Gy local abdominal irradiation
Experimental: 44 male mice were divided into 4 groups: • 1) TAI group, 10 mice; • 2) hypoxanthine group, 10 mice; • 3) IVIg group, 12 mice; • 4) IVIg+hypoxanthine group, 12 mice;
TAI group received only local abdominal irradiation.
Hypoxanthine was orally administered to the mice in hypoxanthine group 30 min before irradiation, followed by gavage through mouth every two days. The dose of hypoxanthine for each gavage was 50 mg/kg body weight.

[1] = hypoxanthine vs TAI group (FIG. 6), IVIg+hypoxanthine vs IVIg group (FIG. 8)

O=c1[nH]cnc2nc[nH]c12 [hypoxanthine]
no difference: length of the large intestine (hypoxanthine vs TAI group (FIG. 5), IVIg+hypoxanthine vs IVIg group (FIG. 7)) | level of inflammatory factor IL-6 in the small intestine [1] | level of inflammatory factor TNFα in the small intestine [1]
